Measurements from patent publication US10800791B2, “Triazole ACC inhibitors and uses thereof” (Gilead Apollo, LLC, priority 2015, dated 2020).
Values after ≈ are worked out from the molar mass of the structure shown. Where two headings read alike, the source gives them in different places.

Experiments:
[1] = biological target: human (hACC2) (Homo sapiens, UniProt O00763); assay: In vitro ACC inhibition assay (ADP-Glo), hACC2; type: biochemical; details: 5 nM ACC2, 20 μM ATP, 20 μM acetyl-CoA
Experimental: The detailed procedure is as follows. […] 10 μL ADP glo reagent was added. […] 20 μL kinase detection reagent was added.

[2] = test system: Diplodia maydis (Dm); assay: Growth inhibition assay of fungal pathogens, Dm; type: cell-based; details: Stenocarpella maydis, 48 h
How it was run: (§1)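 Percent inhibition derived at 48 hours from OD600 and visual scores versus 2% DMSO control, with media+DMSO blank as background. Spore inocula in 17% V8 medium were sized from 48 h growth curves; compounds tested at final 50/10/2 or 2/0.4/0.08 ppm.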

[3] = biological target: fungal (fACC2) (UniProt Q00955); details: read-out: fACC2 (in vitro ACC2 Inhibition Assay, IC50), ADP-Glo, 5 nM ACC2, 20 μM ATP, 20 μM acetyl-CoA
Chain of fungal (fACC2) (Q00955 whole entry): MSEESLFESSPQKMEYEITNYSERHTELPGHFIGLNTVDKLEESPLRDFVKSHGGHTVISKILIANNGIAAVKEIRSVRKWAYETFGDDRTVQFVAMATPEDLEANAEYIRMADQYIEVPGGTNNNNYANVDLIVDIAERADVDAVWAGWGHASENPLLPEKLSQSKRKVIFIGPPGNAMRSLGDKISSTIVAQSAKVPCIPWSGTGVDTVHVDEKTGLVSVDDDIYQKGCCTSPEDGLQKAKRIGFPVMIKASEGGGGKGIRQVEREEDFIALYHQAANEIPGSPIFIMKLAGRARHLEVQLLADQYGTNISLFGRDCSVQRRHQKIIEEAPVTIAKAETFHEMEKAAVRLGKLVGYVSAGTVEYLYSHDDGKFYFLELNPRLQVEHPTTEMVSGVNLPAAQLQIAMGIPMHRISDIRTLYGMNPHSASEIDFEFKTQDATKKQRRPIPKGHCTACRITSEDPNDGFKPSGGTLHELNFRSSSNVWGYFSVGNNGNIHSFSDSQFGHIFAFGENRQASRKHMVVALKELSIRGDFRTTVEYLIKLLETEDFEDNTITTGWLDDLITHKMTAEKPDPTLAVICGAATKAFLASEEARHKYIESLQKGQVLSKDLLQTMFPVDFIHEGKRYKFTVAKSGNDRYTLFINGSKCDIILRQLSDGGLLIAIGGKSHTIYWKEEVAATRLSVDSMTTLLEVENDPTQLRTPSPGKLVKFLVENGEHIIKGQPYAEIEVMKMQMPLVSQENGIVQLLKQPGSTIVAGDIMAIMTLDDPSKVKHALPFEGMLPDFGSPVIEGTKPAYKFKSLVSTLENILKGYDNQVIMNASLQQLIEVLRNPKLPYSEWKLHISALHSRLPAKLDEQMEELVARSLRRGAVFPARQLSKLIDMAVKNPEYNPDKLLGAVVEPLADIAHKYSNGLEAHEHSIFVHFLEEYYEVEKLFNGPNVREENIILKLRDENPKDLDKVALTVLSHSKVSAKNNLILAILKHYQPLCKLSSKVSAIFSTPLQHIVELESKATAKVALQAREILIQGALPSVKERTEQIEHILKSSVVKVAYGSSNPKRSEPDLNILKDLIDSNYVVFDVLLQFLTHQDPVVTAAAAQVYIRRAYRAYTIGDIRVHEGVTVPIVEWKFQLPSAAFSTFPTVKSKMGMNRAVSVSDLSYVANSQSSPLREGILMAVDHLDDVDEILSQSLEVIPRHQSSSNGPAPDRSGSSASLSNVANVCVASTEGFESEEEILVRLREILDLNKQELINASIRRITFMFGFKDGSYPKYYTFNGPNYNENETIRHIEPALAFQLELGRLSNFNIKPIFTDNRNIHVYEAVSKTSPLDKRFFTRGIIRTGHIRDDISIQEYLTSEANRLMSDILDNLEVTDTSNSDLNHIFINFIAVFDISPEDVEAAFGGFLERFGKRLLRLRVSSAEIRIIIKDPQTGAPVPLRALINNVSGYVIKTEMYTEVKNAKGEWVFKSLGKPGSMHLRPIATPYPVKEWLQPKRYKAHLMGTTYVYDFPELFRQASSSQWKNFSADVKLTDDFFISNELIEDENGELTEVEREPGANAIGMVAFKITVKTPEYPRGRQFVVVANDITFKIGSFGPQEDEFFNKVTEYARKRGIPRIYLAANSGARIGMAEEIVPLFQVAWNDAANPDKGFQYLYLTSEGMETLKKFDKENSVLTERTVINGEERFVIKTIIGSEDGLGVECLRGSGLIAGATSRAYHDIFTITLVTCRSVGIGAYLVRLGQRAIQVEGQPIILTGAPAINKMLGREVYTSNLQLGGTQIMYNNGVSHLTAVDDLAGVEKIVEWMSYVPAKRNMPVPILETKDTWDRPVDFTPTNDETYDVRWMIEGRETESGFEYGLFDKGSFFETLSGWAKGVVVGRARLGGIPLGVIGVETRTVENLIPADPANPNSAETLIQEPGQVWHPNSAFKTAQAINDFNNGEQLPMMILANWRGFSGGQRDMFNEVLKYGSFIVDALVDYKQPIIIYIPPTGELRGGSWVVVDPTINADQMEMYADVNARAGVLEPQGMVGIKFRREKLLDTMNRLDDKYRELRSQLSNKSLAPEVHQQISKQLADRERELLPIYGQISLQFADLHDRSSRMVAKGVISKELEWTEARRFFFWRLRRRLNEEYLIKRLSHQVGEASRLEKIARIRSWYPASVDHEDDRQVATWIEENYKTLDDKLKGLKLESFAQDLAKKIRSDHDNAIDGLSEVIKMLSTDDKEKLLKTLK

[4] = test system: Botrtyis cinerea (Bc); assay: Growth inhibition assay of fungal pathogens, Bc; type: cell-based; details: 48 h
How it was run: as §1

[5] = test system: Phytophthora capsici (Pc); assay: Growth inhibition assay of fungal pathogens, Pc; type: cell-based; details: 48 h
How it was run: as §1

[6] = test system: Septoria tritici (St); assay: Growth inhibition assay of fungal pathogens, St; type: cell-based; details: Zymoseptoria tritici, 48 h
How it was run: as §1

[7] = test system: C. albicans; assay: Antifungal Activity Assay (broth microtiter MIC), C. albicans; type: cell-based, Candida albicans; details: Candida albicans, ATCC90028, 48 h
How it was run: (§2)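 CLSI M27-A3 broth microdilution in RPMI 1640+MOPS, final inoculum 2.5×10^3 CFU/mL from overnight Sabouraud cultures grown at 35 °C. MIC read visually at 48 h against growth control.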

[8] = test system: Collectotrichum graminicola (Cg); assay: Growth inhibition assay of fungal pathogens, Cg; type: cell-based; details: 48 h
How it was run: as §1

[9] = test system: Rhizoctonia solani (Rs); assay: Growth inhibition assay of fungal pathogens, Rs; type: cell-based; details: 48 h
[10] = test system: C. parapsilosis; assay: Antifungal Activity Assay (broth microtiter MIC), C. parapsilosis; type: cell-based, Candida parapsilosis; details: Lodderomyces parapsilosis, ATCC22019, 48 h
How it was run: as §2

[11] = Diplodia maydis, growth inhibition at 48 hours vs 2% DMSO control, read-out: Concentration at 90% Inhibition Dm
[12] = Diplodia maydis, growth inhibition vs 2% DMSO control at 48 hours, read-out: Concentration at 90% Inhibition Dm
[13] = Botrtyis cinerea, growth inhibition at 48 hours vs 2% DMSO control, read-out: Concentration at 90% Inhibition Bc
[14] = Botrtyis cinerea, growth inhibition vs 2% DMSO control at 48 hours, read-out: Concentration at 90% Inhibition Bc
[15] = growth inhibition at 48 hours vs 2% DMSO control, read-out: Concentration at 90% Inhibition Pc
[16] = growth inhibition vs 2% DMSO control at 48 hours, read-out: Concentration at 90% Inhibition Pc
[17] = Septoria tritici, growth inhibition at 48 hours vs 2% DMSO control, read-out: Concentration at 90% Inhibition St
[18] = Septoria tritici, growth inhibition vs 2% DMSO control at 48 hours, read-out: Concentration at 90% Inhibition St
[19] = Table 3a, ATCC 90028, 3 replicates, MIC recorded at 48 h, read-out: MIC, C. albicans ATCC 90028
[20] = Table 3b (additional results), ATCC 90028, 3 replicates, MIC recorded at 48 h, read-out: MIC, C. albicans ATCC 90028
[21] = Collectotrichum graminicola, growth inhibition at 48 hours vs 2% DMSO control, read-out: Concentration at 90% Inhibition Cg
[22] = Collectotrichum graminicola, growth inhibition vs 2% DMSO control at 48 hours, read-out: Concentration at 90% Inhibition Cg
[23] = mycelial plugs, growth inhibition at 48 hours vs 2% DMSO control, read-out: Concentration at 90% Inhibition Rs
[24] = mycelial plugs, growth inhibition vs 2% DMSO control at 48 hours, read-out: Concentration at 90% Inhibition Rs
[25] = Table 3a, ATCC 22019, 3 replicates, MIC recorded at 48 h, read-out: MIC, C. parapsilosis ATCC 22019
[26] = Table 3b (additional results), ATCC 22019, 3 replicates, MIC recorded at 48 h, read-out: MIC, C. parapsilosis ATCC 22019

Chain of human (hACC2) (O00763 whole entry): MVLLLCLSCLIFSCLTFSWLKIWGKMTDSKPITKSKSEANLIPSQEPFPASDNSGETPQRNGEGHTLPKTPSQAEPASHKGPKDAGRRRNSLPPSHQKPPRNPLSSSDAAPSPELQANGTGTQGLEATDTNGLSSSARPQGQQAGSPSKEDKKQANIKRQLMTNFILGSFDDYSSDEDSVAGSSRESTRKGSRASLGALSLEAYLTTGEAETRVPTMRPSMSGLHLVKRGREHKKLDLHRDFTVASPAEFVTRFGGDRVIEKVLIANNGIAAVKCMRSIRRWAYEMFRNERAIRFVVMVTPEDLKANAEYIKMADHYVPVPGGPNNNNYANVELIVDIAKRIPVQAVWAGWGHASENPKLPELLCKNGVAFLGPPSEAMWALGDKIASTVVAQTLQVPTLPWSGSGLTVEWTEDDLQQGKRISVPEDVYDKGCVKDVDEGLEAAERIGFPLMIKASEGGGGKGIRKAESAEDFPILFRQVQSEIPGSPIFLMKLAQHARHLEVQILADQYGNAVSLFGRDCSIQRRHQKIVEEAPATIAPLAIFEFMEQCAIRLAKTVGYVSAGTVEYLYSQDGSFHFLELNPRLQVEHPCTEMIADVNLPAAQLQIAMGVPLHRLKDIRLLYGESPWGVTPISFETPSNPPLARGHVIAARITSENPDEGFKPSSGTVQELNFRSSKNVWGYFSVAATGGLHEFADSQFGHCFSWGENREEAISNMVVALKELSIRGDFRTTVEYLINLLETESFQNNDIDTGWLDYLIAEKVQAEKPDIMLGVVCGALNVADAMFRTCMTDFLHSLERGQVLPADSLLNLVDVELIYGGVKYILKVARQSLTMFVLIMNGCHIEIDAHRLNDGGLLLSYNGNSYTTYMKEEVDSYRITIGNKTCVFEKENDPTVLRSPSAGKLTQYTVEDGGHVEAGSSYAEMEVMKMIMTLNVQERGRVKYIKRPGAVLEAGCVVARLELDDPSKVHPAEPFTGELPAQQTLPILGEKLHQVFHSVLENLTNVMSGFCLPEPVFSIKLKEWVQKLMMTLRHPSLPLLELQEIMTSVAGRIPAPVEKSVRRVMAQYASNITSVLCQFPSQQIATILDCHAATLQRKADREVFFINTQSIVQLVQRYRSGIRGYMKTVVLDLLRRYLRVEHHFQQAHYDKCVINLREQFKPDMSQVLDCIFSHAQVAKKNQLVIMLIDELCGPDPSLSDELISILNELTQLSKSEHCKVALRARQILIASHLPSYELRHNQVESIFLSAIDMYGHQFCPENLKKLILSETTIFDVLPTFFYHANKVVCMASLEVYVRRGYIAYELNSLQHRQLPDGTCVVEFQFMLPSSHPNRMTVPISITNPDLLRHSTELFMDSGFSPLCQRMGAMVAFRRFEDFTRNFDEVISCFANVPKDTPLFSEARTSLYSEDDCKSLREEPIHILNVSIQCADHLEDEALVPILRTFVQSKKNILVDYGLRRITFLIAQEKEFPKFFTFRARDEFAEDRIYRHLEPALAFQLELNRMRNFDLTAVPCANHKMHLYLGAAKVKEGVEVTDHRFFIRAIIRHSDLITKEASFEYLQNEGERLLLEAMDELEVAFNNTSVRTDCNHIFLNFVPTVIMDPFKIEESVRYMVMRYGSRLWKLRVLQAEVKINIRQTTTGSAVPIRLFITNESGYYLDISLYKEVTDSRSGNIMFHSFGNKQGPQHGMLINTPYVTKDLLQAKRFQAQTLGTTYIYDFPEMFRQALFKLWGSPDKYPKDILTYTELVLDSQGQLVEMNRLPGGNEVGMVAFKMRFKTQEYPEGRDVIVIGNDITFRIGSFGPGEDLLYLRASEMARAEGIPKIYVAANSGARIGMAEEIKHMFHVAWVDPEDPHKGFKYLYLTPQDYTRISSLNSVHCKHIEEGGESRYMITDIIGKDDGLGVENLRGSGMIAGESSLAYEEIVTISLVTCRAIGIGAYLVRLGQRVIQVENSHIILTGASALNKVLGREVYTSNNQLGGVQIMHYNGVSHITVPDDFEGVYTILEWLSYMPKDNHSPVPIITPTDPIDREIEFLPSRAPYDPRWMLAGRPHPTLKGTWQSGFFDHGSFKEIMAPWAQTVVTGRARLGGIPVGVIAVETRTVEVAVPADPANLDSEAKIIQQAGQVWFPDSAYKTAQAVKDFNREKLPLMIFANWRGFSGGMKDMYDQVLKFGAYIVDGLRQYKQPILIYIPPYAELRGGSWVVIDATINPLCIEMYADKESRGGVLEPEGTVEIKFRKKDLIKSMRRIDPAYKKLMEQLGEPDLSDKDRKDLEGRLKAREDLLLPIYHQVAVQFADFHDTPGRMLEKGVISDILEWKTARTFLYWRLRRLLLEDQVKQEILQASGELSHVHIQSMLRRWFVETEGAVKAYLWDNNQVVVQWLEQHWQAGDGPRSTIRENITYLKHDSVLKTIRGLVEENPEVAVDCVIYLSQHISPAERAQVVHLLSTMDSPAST

SMILES | IC50 ([1]; Table 2a) [nM] | IC50 ([1]; Table 2b, additional results) [nM] | IC90 [2, 11] [µg/mL] | IC90 [2, 12] [µg/mL] | IC50 ([3]; Table 2a) [nM] | IC50 ([3]; Table 2b, additional results) [nM] | IC90 [4, 13] [µg/mL] | IC90 [4, 14] [µg/mL] | IC90 [5, 15] [µg/mL] | IC90 [5, 16] [µg/mL] | IC90 [6, 17] [µg/mL] | IC90 [6, 18] [µg/mL] | MIC [7, 19] [µg/mL] | MIC [7, 20] [µg/mL] | IC90 [8, 21] [µg/mL] | IC90 [8, 22] [µg/mL] | IC90 [9, 23] [µg/mL] | IC90 [9, 24] [µg/mL] | MIC [10, 25] [µg/mL] | MIC [10, 26] [µg/mL] | also measured
COc1ccc(F)cc1[C@H](Cn1c(=O)n(C(C)(C)C(=O)N2CCCC2)c(=O)c2c(C)c(-n3nccn3)sc21)OCCN(C)C [Compound I-75, (R)-1-(2-(2-(dimethylamino)ethoxy)-2-(5-fluoro-2-methoxyphenyl)ethyl)-5-methyl-3-(2-methyl-1-oxo-1-(pyrrolidin-1-yl)propan-2-yl)-6-(2H-1,2,3-triazol-2-yl)thieno[2,3-d]pyrimidine-2,4(1H,3H)-dione] | > 40 | > 40 | > 50 | > 50 | 1 to 5 | 1 to 5 | > 50 | > 50 | > 50 | > 50 | > 50 | > 50 | 2.1 to 4 (≈ 3.35 to 6.37 µM) | 2.01 to 4 (≈ 3.2 to 6.37 µM) | > 50 | > 50 | > 50 | > 50 | 2.1 to 4 (≈ 3.35 to 6.37 µM) | 1.01 to 2 (≈ 1.61 to 3.19 µM) | –
COc1ccc(F)cc1[C@H](Cn1c(=O)n(C(C)(C)C(=O)NC(C)C)c(=O)c2c(C)c(-n3nccn3)sc21)OCCN(C)C [Compound I-76, (R)-2-(1-(2-(2-(dimethylamino)ethoxy)-2-(5-fluoro-2-methoxyphenyl)ethyl)-5-methyl-2,4-dioxo-6-(2H-1,2,3-triazol-2-yl)-1,4-dihydro-thieno[2,3-d]pyrimidin-3(2H)-yl)-N-isopropyl-2-methylpropanamide] | > 40 | > 40 | – | – | 1 to 5 | 1 to 5 | – | – | – | – | – | – | – | – | – | – | – | – | – | – | IC90 ([2]; read-out: Concentration at 90% Inhibition Dm, Diplodia maydis, growth inhibition at 48 hours vs 2% DMSO control): > 50 µg/mL; IC90 ([2]; read-out: Concentration at 90% Inhibition Dm, Diplodia maydis, growth inhibition vs 2% DMSO control at 48 hours): > 50 µg/mL; IC90 ([4]; read-out: Concentration at 90% Inhibition Bc, Botrtyis cinerea, growth inhibition at 48 hours vs 2% DMSO control): > 50 µg/mL; IC90 ([4]; read-out: Concentration at 90% Inhibition Bc, Botrtyis cinerea, growth inhibition vs 2% DMSO control at 48 hours): > 50 µg/mL; IC90 ([5]; read-out: Concentration at 90% Inhibition Pc, Phytophthora capsici, growth inhibition at 48 hours vs 2% DMSO control): > 50 µg/mL; IC90 ([5]; read-out: Concentration at 90% Inhibition Pc, Phytophthora capsici, growth inhibition vs 2% DMSO control at 48 hours): > 50 µg/mL; IC90 ([6]; read-out: Concentration at 90% Inhibition St, Septoria tritici, growth inhibition at 48 hours vs 2% DMSO control): > 50 µg/mL; IC90 ([6]; read-out: Concentration at 90% Inhibition St, Septoria tritici, growth inhibition vs 2% DMSO control at 48 hours): > 50 µg/mL; MIC ([7]; read-out: MIC, C. albicans ATCC 90028, Table 3a, 3 replicates, MIC recorded at 48 h): 2.1 to 4 µg/mL (≈ 3.41 to 6.5 µM); MIC ([7]; read-out: MIC, C. albicans ATCC 90028, Table 3b (additional results), 3 replicates, MIC recorded at 48 h): 1.01 to 2 µg/mL (≈ 1.64 to 3.25 µM); IC90 ([8]; read-out: Concentration at 90% Inhibition Cg, Collectotrichum graminicola, growth inhibition at 48 hours vs 2% DMSO control): > 50 µg/mL; IC90 ([8]; read-out: Concentration at 90% Inhibition Cg, Collectotrichum graminicola, growth inhibition vs 2% DMSO control at 48 hours): > 50 µg/mL; IC90 ([9]; read-out: Concentration at 90% Inhibition Rs, Rhizoctonia solani, mycelial plugs, growth inhibition at 48 hours vs 2% DMSO control): 10 µg/mL (≈ 16.2 µM); IC90 ([9]; read-out: Concentration at 90% Inhibition Rs, Rhizoctonia solani, mycelial plugs, growth inhibition vs 2% DMSO control at 48 hours): > 50 µg/mL; MIC ([10]; read-out: MIC, C. parapsilosis ATCC 22019, Table 3a, 3 replicates, MIC recorded at 48 h): 2.1 to 4 µg/mL (≈ 3.41 to 6.5 µM); MIC ([10]; read-out: MIC, C. parapsilosis ATCC 22019, Table 3b (additional results), 3 replicates, MIC recorded at 48 h): 0.25 to 1 µg/mL (≈ 0.406 to 1.62 µM)
COc1ccc(F)cc1[C@H](Cn1c(=O)n([C@@H](C)C(=O)NC2CCC2)c(=O)c2c(C)c(-n3nccn3)sc21)OCCO [Compound I-77, (S)—N-cyclobutyl-2-(1-((R)-2-(5-fluoro-2-methoxyphenyl)-2-(2-hydroxyethoxy)ethyl)-5-methyl-2,4-dioxo-6-(2H-1,2,3-triazol-2-yl)-1,4-dihydrothieno[2,3-d]pyrimidin-3(2H)-yl)propanamide] | 10 to 40 | 10 to 40 | 2 (≈ 3.41 µM) | 2 (≈ 3.41 µM) | 1 to 5 | 1 to 5 | 0.4 (≈ 0.682 µM) | 0.4 (≈ 0.682 µM) | > 50 | > 50 | > 50 | > 50 | 1.1 to 2 (≈ 1.88 to 3.41 µM) | 2.01 to 4 (≈ 3.43 to 6.82 µM) | 2 (≈ 3.41 µM) | 10 (≈ 17 µM) | 2 (≈ 3.41 µM) | 2 (≈ 3.41 µM) | 1.1 to 2 (≈ 1.88 to 3.41 µM) | 0.25 to 1 (≈ 0.426 to 1.7 µM) | –
COc1ccc(F)cc1[C@H](Cn1c(=O)n([C@@H](C)C(=O)N(C)C(C)C)c(=O)c2c(C)c(-n3nccn3)sc21)OCCO [Compound I-78, (S)-2-(1-((R)-2-(5-fluoro-2-methoxyphenyl)-2-(2-hydroxy-ethoxy)ethyl)-5-methyl-2,4-dioxo-6-(2H-1,2,3-triazol-2-yl)-1,4-dihydrothieno[2,3-d]pyrimidin-3(2H)-yl)-N-isopropyl-N-methylpropanamide] | 10 to 40 | 10 to 40 | 2 (≈ 3.4 µM) | 2 (≈ 3.4 µM) | 1 to 5 | 0.3 to 1 | 0.4 (≈ 0.68 µM) | 0.4 (≈ 0.68 µM) | > 50 | > 50 | 10 (≈ 17 µM) | > 50 | 2.1 to 4 (≈ 3.57 to 6.8 µM) | 1.01 to 2 (≈ 1.72 to 3.4 µM) | 0.4 (≈ 0.68 µM) | 0.4 (≈ 0.68 µM) | 0.08 (≈ 0.136 µM) | 0.08 (≈ 0.136 µM) | 2.1 to 4 (≈ 3.57 to 6.8 µM) | 2.01 to 4 (≈ 3.41 to 6.8 µM) | –
